Laboratory results taken from US20250243196A1, “CITRON KINASE INHIBITORS” (The Cleveland Clinic Foundation, priority 2021, published 2025).
Like-named read-outs stand apart in the source and are kept apart here.

Legend:
[1] = test system: NCI-60 human tumor cell line panel; test: NCI-60 human tumor cell line screen (GI50); type: cell-based
PDHK4(h) = PDHK4(h) (Homo sapiens (Human), UniProt Q16654); test: KinaseProfiler panel; type: biochemical; design: dose or concentration left out as unconfirmed; conditions: activity remaining
JAK1(h) = JAK1(h) (Homo sapiens (Human), UniProt P23458); test: KinaseProfiler panel; type: biochemical; design: dose or concentration left out as unconfirmed; conditions: activity remaining
JAK1(h), sequence (P23458 whole entry): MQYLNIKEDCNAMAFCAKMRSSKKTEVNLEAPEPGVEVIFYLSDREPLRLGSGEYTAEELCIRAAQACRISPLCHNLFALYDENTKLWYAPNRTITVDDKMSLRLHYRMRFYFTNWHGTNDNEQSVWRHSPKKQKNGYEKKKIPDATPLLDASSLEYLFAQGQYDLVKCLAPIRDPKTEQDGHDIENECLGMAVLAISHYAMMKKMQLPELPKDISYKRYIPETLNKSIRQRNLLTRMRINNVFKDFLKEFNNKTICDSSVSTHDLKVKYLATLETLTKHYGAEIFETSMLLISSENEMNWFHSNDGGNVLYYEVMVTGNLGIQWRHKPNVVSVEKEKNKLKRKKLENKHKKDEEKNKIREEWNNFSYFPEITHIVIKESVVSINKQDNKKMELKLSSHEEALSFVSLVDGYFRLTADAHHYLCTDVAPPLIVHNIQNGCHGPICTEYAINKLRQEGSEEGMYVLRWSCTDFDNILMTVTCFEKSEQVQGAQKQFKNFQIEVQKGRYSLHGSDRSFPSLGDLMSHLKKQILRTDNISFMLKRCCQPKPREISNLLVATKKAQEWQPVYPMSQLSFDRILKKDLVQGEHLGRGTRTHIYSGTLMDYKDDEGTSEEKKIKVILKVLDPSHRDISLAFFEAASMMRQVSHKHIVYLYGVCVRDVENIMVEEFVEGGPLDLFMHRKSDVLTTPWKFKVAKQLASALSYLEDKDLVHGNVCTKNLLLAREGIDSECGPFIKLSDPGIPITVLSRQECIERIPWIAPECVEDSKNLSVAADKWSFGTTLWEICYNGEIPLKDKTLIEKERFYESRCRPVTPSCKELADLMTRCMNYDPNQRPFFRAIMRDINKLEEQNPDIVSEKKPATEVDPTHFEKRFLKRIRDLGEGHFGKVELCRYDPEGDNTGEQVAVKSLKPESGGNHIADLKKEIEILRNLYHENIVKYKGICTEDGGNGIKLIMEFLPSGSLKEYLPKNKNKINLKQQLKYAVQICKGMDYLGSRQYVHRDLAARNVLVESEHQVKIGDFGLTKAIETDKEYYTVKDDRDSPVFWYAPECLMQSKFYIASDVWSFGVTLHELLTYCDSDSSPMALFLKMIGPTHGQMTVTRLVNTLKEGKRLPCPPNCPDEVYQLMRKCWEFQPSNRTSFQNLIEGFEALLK

PDHK4(h), sequence (Q16654 whole entry): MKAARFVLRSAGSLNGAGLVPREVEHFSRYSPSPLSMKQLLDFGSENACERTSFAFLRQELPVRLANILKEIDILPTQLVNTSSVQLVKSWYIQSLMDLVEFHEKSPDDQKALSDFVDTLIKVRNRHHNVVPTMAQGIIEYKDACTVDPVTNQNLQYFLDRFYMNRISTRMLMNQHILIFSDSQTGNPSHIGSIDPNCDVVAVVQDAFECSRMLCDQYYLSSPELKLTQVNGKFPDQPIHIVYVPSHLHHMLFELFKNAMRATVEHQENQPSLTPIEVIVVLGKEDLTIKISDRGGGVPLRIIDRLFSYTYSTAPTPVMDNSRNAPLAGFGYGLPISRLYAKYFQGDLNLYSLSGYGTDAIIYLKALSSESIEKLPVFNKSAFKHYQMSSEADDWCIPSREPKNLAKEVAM

Cc1cc2c(-c3ccc(NC(=O)[C@H](N)CC(C)(C)C)cc3C)ccnc2[nH]1 [Compound F-90, (2R)-2-Amino-4,4-dimethyl-N-[3-methyl-4-(2-methyl-1H-pyrrolo[2,3-b]pyridin-4-yl)phenyl]pentanamide]
GI50 ([1]; Homo sapiens, OVCAR-8, OVCAR-8, Ovarian Cancer, read-out: GI50): 13.6 µM | GI50 ([1]; Homo sapiens, PC-3, Prostate Cancer, read-out: GI50): 7.9 µM | GI50 ([1]; Homo sapiens, RPMI-8226, RPMI-8226, Leukemia, read-out: GI50): 2.8 µM | GI50 ([1]; Homo sapiens, RXF 393, RXF 393, Renal Cancer, read-out: GI50): 3.7 µM | GI50 ([1]; Homo sapiens, SF-268, SF-268, CNS Cancer, read-out: GI50): 11.1 µM | GI50 ([1]; Homo sapiens, SF-295, SF-295, CNS Cancer, read-out: GI50): 8.3 µM | GI50 ([1]; Homo sapiens, SF-539, SF-539, CNS Cancer, read-out: GI50): 8 µM | GI50 ([1]; Homo sapiens, SK-MEL-2, SK-MEL-2, Melanoma, read-out: GI50): 14 µM | GI50 ([1]; Homo sapiens, SK-MEL-5, SK-MEL-5, Melanoma, read-out: GI50): 2.5 µM | GI50 ([1]; Homo sapiens, SK-MEL-28, SK-MEL-28, Melanoma, read-out: GI50): 8.5 µM | GI50 ([1]; Homo sapiens, SK-OV-3, SK-OV-3, Ovarian Cancer, read-out: GI50): 12.4 µM | GI50 ([1]; Homo sapiens, SN12C, Renal Cancer, read-out: GI50): 11.1 µM | GI50 ([1]; Homo sapiens, SNB-19, SNB-19, CNS Cancer, read-out: GI50): 11.3 µM | GI50 ([1]; Homo sapiens, SNB-75, SNB-75, CNS Cancer, read-out: GI50): 4.7 µM | GI50 ([1]; Homo sapiens, SR, Leukemia, read-out: GI50): 2.1 µM | GI50 ([1]; Homo sapiens, SW-620, SW-620, Colon Cancer, read-out: GI50): 5.6 µM | GI50 ([1]; Homo sapiens, T47D, T-47D, Breast Cancer, read-out: GI50): 6.7 µM | GI50 ([1]; Homo sapiens, TK-10, TK-10, Renal Cancer, read-out: GI50): 12.6 µM | GI50 ([1]; Homo sapiens, U-251, U251, CNS Cancer, read-out: GI50): 6 µM | GI50 ([1]; Homo sapiens, UACC-62, UACC-62, Melanoma, read-out: GI50): 8.6 µM | GI50 ([1]; Homo sapiens, UACC-257, UACC-257, Melanoma, read-out: GI50): 10.5 µM | GI50 ([1]; Homo sapiens, UO-31, UO-31, Renal Cancer, read-out: GI50): 4.6 µM | GI50 ([1]; IGROV1, Ovarian Cancer): −4.915 Log(M) | GI50 ([1]; K-562, Leukemia): −5.551 Log(M) | GI50 ([1]; KM12, Colon Cancer): −5.215 Log(M) | GI50 ([1]; LOX IMVI, Melanoma): −5.211 Log(M) | GI50 ([1]; M14, Melanoma): −4.959 Log(M) | GI50 ([1]; MALME-3M, Melanoma): −4.992 Log(M) | GI50 ([1]; MCF7, Breast Cancer): −5.256 Log(M) | GI50 ([1]; MDA-MB-231/ATCC, Breast Cancer): −5.129 Log(M) | GI50 ([1]; MDA-MB-435, Breast Cancer): −5.155 Log(M) | GI50 ([1]; MDA-MB-468, Breast Cancer): −5.564 Log(M) | GI50 ([1]; MOLT-4, Leukemia): −5.329 Log(M) | GI50 ([1]; NCI-H23, Non-Small Cell Lung Cancer): −4.915 Log(M) | GI50 ([1]; NCI-H226, Non-Small Cell Lung Cancer): −4.971 Log(M) | GI50 ([1]; NCI-H322M, Non-Small Cell Lung Cancer): −4.845 Log(M) | GI50 ([1]; NCI-H460, Non-Small Cell Lung Cancer): −5.245 Log(M) | GI50 ([1]; NCI-H522, Non-Small Cell Lung Cancer): −4.887 Log(M) | GI50 ([1]; NCI/ADR-RES, Breast Cancer): −4.873 Log(M) | GI50 ([1]; OVCAR-3, Ovarian Cancer): −4.937 Log(M) | GI50 ([1]; OVCAR-4, Ovarian Cancer): −5.158 Log(M) | GI50 ([1]; OVCAR-5, Ovarian Cancer): −4.982 Log(M) | GI50 ([1]; OVCAR-8, Ovarian Cancer): −4.867 Log(M) | GI50 ([1]; PC-3, Prostate Cancer): −5.102 Log(M) | GI50 ([1]; RPMI-8226, Leukemia): −5.557 Log(M) | GI50 ([1]; RXF 393, Renal Cancer): −5.434 Log(M) | GI50 ([1]; SF-268, CNS Cancer): −4.953 Log(M) | GI50 ([1]; SF-295, CNS Cancer): −5.079 Log(M) | GI50 ([1]; SF-539, CNS Cancer): −5.098 Log(M) | GI50 ([1]; SK-MEL-2, Melanoma): −4.853 Log(M) | GI50 ([1]; SK-MEL-5, Melanoma): −5.609 Log(M) | GI50 ([1]; SK-MEL-28, Melanoma): −5.072 Log(M) | GI50 ([1]; SK-OV-3, Ovarian Cancer): −4.905 Log(M) | GI50 ([1]; SN12C, Renal Cancer): −4.953 Log(M) | GI50 ([1]; SNB-19, CNS Cancer): −4.945 Log(M) | GI50 ([1]; SNB-75, CNS Cancer): −5.326 Log(M) | GI50 ([1]; SR, Leukemia): −5.682 Log(M) | GI50 ([1]; SW-620, Colon Cancer): −5.250 Log(M) | GI50 ([1]; T-47D, Breast Cancer): −5.174 Log(M) | GI50 ([1]; TK-10, Renal Cancer): −4.901 Log(M) | GI50 ([1]; U251, CNS Cancer): −5.222 Log(M) | GI50 ([1]; UACC-62, Melanoma): −5.066 Log(M) | GI50 ([1]; UACC-257, Melanoma): −4.977 Log(M) | GI50 ([1]; UO-31, Renal Cancer): −5.335 Log(M) | % Activity (PDHK4(h)): 101% | % Activity (JAK1(h)): 85%
